ChEMBL document CHEMBL5154765, “Design, synthesis, and biological evaluation of novel spiro[pyrrolidine-2,3'-quinolin]-2'-one derivatives as potential chitin synthase inhibitors and antifungal agents” (Eur J Med Chem, 2022)
Values after ≈ are worked out from the molar mass of the structure shown.

Tests used:
[1] = system: Aspergillus fumigatus; assay: Antifungal activity against fluconazole resistant Aspergillus fumigatus GIMCC 3.19 assessed as reduction in fungal growth incubated for 24 hrs by two fold broth dilution method; assay type: functional
[2] = system: Aspergillus fumigatus; assay: Antifungal activity against Aspergillus fumigatus GIMCC 3.19 assessed as reduction in fungal growth in presence of sorbitol incubated for 24 hrs by two fold broth dilution method; assay type: functional
[3] = system: Aspergillus fumigatus; assay: Antifungal activity against Aspergillus fumigatus GIMCC 3.19 incubated for 72 hrs in presence of fluconazole by checker board assay; assay type: functional
[4] = system: Aspergillus fumigatus; assay: Antifungal activity against Aspergillus fumigatus GIMCC 3.19 assessed as reduction in fungal growth incubated for 24 hrs by two fold broth dilution method; assay type: functional
[5] = system: Aspergillus flavus; assay: Antifungal activity against Aspergillus flavus ATCC 16870 assessed as reduction in fungal growth incubated for 24 hrs by two fold broth dilution method; assay type: functional
[6] = system: Candida albicans; assay: Antifungal activity against Candida albicans ATCC 76615 incubated for 72 hrs in presence of polyoxin B by checker board assay; assay type: functional
[7] = system: Aspergillus fumigatus; assay: Synergistic antifungal activity against Aspergillus fumigatus GIMCC 3.19 assessed as fractional inhibitory concentration index incubated for 72 hrs in presence of fluconazole by checker board assay; assay type: functional
[8] = Inhibition of Candida tropicalis ATCC750 chitin synthase using UDP-GlcNAc as substrate incubated for 1 hr by microplate reader analysis
[9] = system: Aspergillus flavus; assay: Antifungal activity against Aspergillus flavus ATCC 16870 assessed as reduction in fungal growth in presence of sorbitol incubated for 24 hrs by two fold broth dilution method; assay type: functional
[10] = system: Candida albicans; assay: Synergistic antifungal activity against Candida albicans ATCC 76615 assessed as fractional inhibitory concentration index incubated for 72 hrs in presence of polyoxin B by checker board assay; assay type: functional
[11] = system: Cryptococcus neoformans; assay: Antifungal activity against fluconazole resistant Cryptococcus neoformans ATCC 32719 assessed as reduction in fungal growth incubated for 24 hrs by two fold broth dilution method; assay type: functional
[12] = system: Cryptococcus neoformans; assay: Antifungal activity against Cryptococcus neoformans ATCC 32719 assessed as polyoxin B MIC incubated for 72 hrs by checker board assay; assay type: functional
[13] = system: Aspergillus fumigatus; assay: Antifungal activity against Aspergillus fumigatus GIMCC 3.19 assessed as fluconazole MIC incubated for 72 hrs by checker board assay; assay type: functional
[14] = system: Candida tropicalis; assay: Inhibition of Candida tropicalis ATCC750 chitin synthase at 300 ug/ml using UDP-GlcNAc as substrate incubated for 1 hr by microplate reader analysis relative to control; conditions: dose 300.0 µg/ml
[15] = system: Cryptococcus neoformans; assay: Antifungal activity against Cryptococcus neoformans ATCC 32719 assessed as reduction in fungal growth in presence of sorbitol incubated for 24 hrs by two fold broth dilution method; assay type: functional
[16] = system: Candida albicans; assay: Antifungal activity against micafungin resistant Candida albicans ATCC 76615 assessed as reduction in fungal growth incubated for 24 hrs by two fold broth dilution method; assay type: functional
[17] = system: Aspergillus flavus; assay: Synergistic antifungal activity against Aspergillus flavus ATCC 16870 assessed as fractional inhibitory concentration index incubated for 72 hrs in presence of polyoxin B by checker board assay; assay type: functional
[18] = system: Candida albicans; assay: Antifungal activity against Candida albicans ATCC 76615 assessed as polyoxin B MIC incubated for 72 hrs by checker board assay; assay type: functional
[19] = system: Aspergillus flavus; assay: Antifungal activity against Aspergillus flavus ATCC 16870 assessed as polyoxin B MIC incubated for 72 hrs by checker board assay; assay type: functional
[20] = system: Cryptococcus neoformans; assay: Synergistic antifungal activity against Cryptococcus neoformans ATCC 32719 assessed as fractional inhibitory concentration index incubated for 72 hrs in presence of polyoxin B by checker board assay; assay type: functional
[21] = system: Aspergillus flavus; assay: Antifungal activity against fluconazole resistant Aspergillus flavus ATCC 16870 assessed as reduction in fungal growth incubated for 24 hrs by two fold broth dilution method; assay type: functional
[22] = system: Aspergillus flavus; assay: Antifungal activity against Aspergillus flavus ATCC 16870 assessed as fluconazole MIC incubated for 72 hrs by checker board assay; assay type: functional
[23] = system: Candida albicans; assay: Antifungal activity against Candida albicans ATCC 76615 assessed as fluconazole MIC incubated for 72 hrs by checker board assay; assay type: functional
[24] = system: Aspergillus flavus; assay: Antifungal activity against Aspergillus flavus ATCC 16870 incubated for 72 hrs in presence of polyoxin B by checker board assay; assay type: functional
[25] = system: Aspergillus fumigatus; assay: Antifungal activity against Aspergillus fumigatus GIMCC 3.19 incubated for 72 hrs in presence of polyoxin B by checker board assay; assay type: functional
[26] = system: Candida albicans; assay: Antifungal activity against Candida albicans ATCC 76615 incubated for 72 hrs in presence of fluconazole by checker board assay; assay type: functional
[27] = system: Candida albicans; assay: Antifungal activity against Candida albicans ATCC 76615 assessed as reduction in fungal growth incubated for 24 hrs by two fold broth dilution method; assay type: functional
[28] = system: Cryptococcus neoformans; assay: Antifungal activity against Cryptococcus neoformans ATCC 32719 assessed as reduction in fungal growth incubated for 24 hrs by two fold broth dilution method; assay type: functional
[29] = system: Aspergillus fumigatus; assay: Synergistic antifungal activity against Aspergillus fumigatus GIMCC 3.19 assessed as fractional inhibitory concentration index incubated for 72 hrs in presence of polyoxin B by checker board assay; assay type: functional
[30] = system: Candida albicans; assay: Antifungal activity against fluconazole resistant Candida albicans ATCC 76615 assessed as reduction in fungal growth incubated for 24 hrs by two fold broth dilution method; assay type: functional
[31] = system: Candida albicans; assay: Antifungal activity against Candida albicans ATCC 76615 assessed as reduction in fungal growth in presence of sorbitol incubated for 24 hrs by two fold broth dilution method; assay type: functional
[32] = system: Cryptococcus neoformans; assay: Antifungal activity against Cryptococcus neoformans ATCC 32719 incubated for 72 hrs in presence of fluconazole by checker board assay; assay type: functional
[33] = system: Candida albicans; assay: Synergistic antifungal activity against Candida albicans ATCC 76615 assessed as fractional inhibitory concentration index incubated for 72 hrs in presence of fluconazole by checker board assay; assay type: functional
[34] = system: Aspergillus fumigatus; assay: Antifungal activity against Aspergillus fumigatus GIMCC 3.19 assessed as polyoxin B MIC incubated for 72 hrs by checker board assay; assay type: functional
[35] = system: Cryptococcus neoformans; assay: Antifungal activity against Cryptococcus neoformans ATCC 32719 assessed as fluconazole MIC incubated for 72 hrs by checker board assay; assay type: functional
[36] = system: Aspergillus flavus; assay: Synergistic antifungal activity against Aspergillus flavus ATCC 16870 assessed as fractional inhibitory concentration index incubated for 72 hrs in presence of fluconazole by checker board assay; assay type: functional
[37] = system: Cryptococcus neoformans; assay: Antifungal activity against Cryptococcus neoformans ATCC 32719 incubated for 72 hrs in presence of polyoxin B by checker board assay; assay type: functional
[38] = system: Cryptococcus neoformans; assay: Synergistic antifungal activity against Cryptococcus neoformans ATCC 32719 assessed as fractional inhibitory concentration index incubated for 72 hrs in presence of fluconazole by checker board assay; assay type: functional
[39] = system: Aspergillus flavus; assay: Antifungal activity against Aspergillus flavus ATCC 16870 incubated for 72 hrs in presence of fluconazole by checker board assay; assay type: functional

| SMILES | MIC [1] [µg/mL] | MIC [2] [µg/mL] | MIC [3] [µg/mL] | MIC [4] [µg/mL] | MIC [5] [µg/mL] | MIC [6] [µg/mL] | fractional inhibitory concentration index (FICI) [7] | IC50 [8] [µM] | MIC [9] [µg/mL] | fractional inhibitory concentration index (FICI) [10] | MIC [11] [µg/mL] | MIC [12] [µg/mL] | MIC [13] [µg/mL] | inhibition [14] [%] | MIC [15] [µg/mL] | MIC [16] [µg/mL] | fractional inhibitory concentration index (FICI) [17] | MIC [18] [µg/mL] | MIC [19] [µg/mL] | fractional inhibitory concentration index (FICI) [20] | other results |
| --- | --- | --- | --- | --- | --- | --- | --- | --- | --- | --- | --- | --- | --- | --- | --- | --- | --- | --- | --- | --- | --- |
| O=C(/C=C/C(=O)N1CCCC12Cc1ccccc1NC2=O)Nc1ccc(Cl)c(F)c1 (configuration not stated) | 128 (≈ 299 µM) | 32 | 1 | 4 (≈ 9.35 µM) | 4 (≈ 9.35 µM) | 2 | 0.5 | 110 | 64 | 2 | 256 (≈ 598 µM) | 4 | 1 | 82.6 | 64 | 32 (≈ 74.8 µM) | 2 | 8 | 8 | 0.75 | MIC [21]: 32 µg/mL (≈ 74.8 µM); MIC [22]: 1 µg/mL; MIC [23]: 1 µg/mL; MIC [24]: 4 µg/mL; MIC [25]: 2 µg/mL; MIC [26]: 0.5 µg/mL; MIC [27]: 2 µg/mL (≈ 4.67 µM); MIC [28]: 8 µg/mL (≈ 18.7 µM); fractional inhibitory concentration index (FICI) [29]: 0.75; MIC [30]: 32 µg/mL (≈ 74.8 µM); MIC [31]: 16 µg/mL; MIC [32]: 4 µg/mL; fractional inhibitory concentration index (FICI) [33]: 0.5; MIC [34]: 2 µg/mL; MIC [35]: 8 µg/mL; fractional inhibitory concentration index (FICI) [36]: 0.63; MIC [37]: 4 µg/mL; fractional inhibitory concentration index (FICI) [38]: 1.5; MIC [39]: 2 µg/mL |
| O=C(/C=C/C(=O)N1CCCC12Cc1ccccc1NC2=O)Nc1ccc(F)cc1 (configuration not stated) | 256 (≈ 651 µM) | 128 | 2 | 8 (≈ 20.3 µM) | 8 (≈ 20.3 µM) | 1 | 0.75 | 130 | 64 | 0.75 | 256 (≈ 651 µM) | 8 | 2 | 77.9 | 64 | 64 (≈ 163 µM) | 1.5 | 4 | 4 | 1.5 | MIC [21]: 32 µg/mL (≈ 81.3 µM); MIC [22]: 2 µg/mL; MIC [23]: 1 µg/mL; MIC [24]: 8 µg/mL; MIC [25]: 4 µg/mL; MIC [26]: 2 µg/mL; MIC [27]: 4 µg/mL (≈ 10.2 µM); MIC [28]: 8 µg/mL (≈ 20.3 µM); fractional inhibitory concentration index (FICI) [29]: 0.75; MIC [30]: 64 µg/mL (≈ 163 µM); MIC [31]: 32 µg/mL; MIC [32]: 2 µg/mL; fractional inhibitory concentration index (FICI) [33]: 0.75; MIC [34]: 2 µg/mL; MIC [35]: 4 µg/mL; fractional inhibitory concentration index (FICI) [36]: 0.75; MIC [37]: 8 µg/mL; fractional inhibitory concentration index (FICI) [38]: 0.75; MIC [39]: 4 µg/mL |
| O=C(/C=C/C(=O)N1CCCC12Cc1ccccc1NC2=O)Nc1ccccc1[N+](=O)[O-] (configuration not stated) | 64 (≈ 152 µM) | 32 | 1 | 4 (≈ 9.51 µM) | 4 (≈ 9.51 µM) | 2 | 0.75 | 110 | 64 | 1 | 64 (≈ 152 µM) | 8 | 2 | 80.9 | 64 | 64 (≈ 152 µM) | 1.5 | 4 | 4 | 0.75 | MIC [21]: 64 µg/mL (≈ 152 µM); MIC [22]: 2 µg/mL; MIC [23]: 2 µg/mL; MIC [24]: 4 µg/mL; MIC [25]: 2 µg/mL; MIC [26]: 2 µg/mL; MIC [27]: 4 µg/mL (≈ 9.51 µM); MIC [28]: 16 µg/mL (≈ 38.1 µM); fractional inhibitory concentration index (FICI) [29]: 1.5; MIC [30]: 64 µg/mL (≈ 152 µM); MIC [31]: 32 µg/mL; MIC [32]: 8 µg/mL; fractional inhibitory concentration index (FICI) [33]: 1; MIC [34]: 8 µg/mL; MIC [35]: 4 µg/mL; fractional inhibitory concentration index (FICI) [36]: 0.75; MIC [37]: 4 µg/mL; fractional inhibitory concentration index (FICI) [38]: 1; MIC [39]: 2 µg/mL |
